{"source": "patent US20250230173A1", "about": "“SALT FORMS OF AN AXL INHIBITOR” (Arcus Biosciences, Inc., priority 2023, published 2025)", "format_in_all_cases": "physicochemical", "key": {"[1]": {"experiment": "Stability study of selected solid forms, XRPD after 7 days of storage", "excerpt": "XRPD diffractograms were collected with a Bruker, D2 Phaser or Panalytical Empyrean X-ray diffractometer. Diffractograms can be read by one of skill in the art, for example, to determine if a chemical sample is the substantially the same, different, or represents a mixture of forms. When a diffractogram is “substantially in accordance” as another diffractogram, a person of skill in the art would regard the samples resulting in the two diffractograms as the same form or same mixture of forms, taking into account minor variations for instrumentation, conditions, and the like.\nA stability study comparing amorphous freebase Compound I, Freebase Form II, 2-Napsylate Form I, Fumarate Form I, Succinate Form I, and Camsylate Form I was conducted. HPLC measurements were taken after 7 days of storage at the indicated conditions."}, "[2]": {"experiment": "Hygroscopicity by DVS, XRPD before and after", "conditions": "two DVS cycles, 0-90% RH", "experimental": "Hygroscopicity of 2-Napsylate Forms I and VI were assessed using DVS. Samples of 2-Napyslate Form I and Form VI (7-20 mg) were placed separately into a tared sample chamber and automatically weighed."}, "[3]": {"experiment": "Stability study of selected solid forms, HPLC purity after 7 days of storage"}, "[4]": {"experiment": "Long term and accelerated stability of 2-Napsylate Form I", "conditions": "for Changes on storage: as of 3 months", "experimental": "Samples of 2-Napsylate Form I were further tested for long term and accelerated stability. Samples of the compound are stored at conditions of either 2-8° C. (long term) or 25° C. and 60% RH (accelerated). Stability samples are packaged in double low-density polyethylene (LDPE) bags in a high-density polyethylene (HDPE) outer container.\nSamples are tested for appearance, assay, chemical purity, water content, microbial limits, and crystallinity."}, "[5]": {"experiment": "Storage at 40° C. and 75% RH for one week (XRPD)", "experimental": "The stability of 2-Napsylate Form I was compared with the stability of 2-[…] Form VI when stored at 40° C. and 75% RH for a period of one week."}, "[6]": {"experiment": "Stability of 2-Napsylate Form I under variable humidity (XRPD)", "conditions": "RH 10% to 90% at 25° C., every 10% RH, 4 hr equilibration at each step", "experimental": "2-Napsylate Form I was used to test form changes as a function of RH from 10% to 90% at 25° C. The XRPD data was collected every 10% RH (FIG. 20) with an equilibration time of 4 hr at each step."}, "[7]": {"experiment": "Form conversion of 2-Napsylate crystalline forms on vacuum drying or in slurry (XRPD)"}}, "note": "“Also recorded” adds a separate entry of the source.", "data": [{"smiles": "Cc1cccnc1-c1ccc(-c2n[nH]c3ncc(-c4ccc5c(c4)CC[C@@H](N4C6COCC4C6)CC5)cc23)nc1", "note": "[2-Napsylate Form I]", "values": [{"measurement": "XRPD (solid form)", "setting": "[1]; 7 days, 25° C.", "value": "Form I"}, {"measurement": "XRPD (solid form)", "setting": "[1]; 7 days, 40° C. / 75% RH", "value": "Form I"}, {"measurement": "XRPD (solid form)", "setting": "[1]; 7 days, 60° C.", "value": "Form I"}, {"measurement": "XRPD (solid form)", "setting": "[1]; T0", "value": "Form I"}, {"measurement": "Form change after DVS testing (XRPD)", "setting": "[2]", "value": "no form change"}, {"measurement": "HPLC Purity (A %)", "setting": "[3]; 7 days, 25° C.", "value": 99.82, "unit": "A %"}, {"measurement": "HPLC Purity (A %)", "setting": "[3]; 7 days, 40° C. / 75% RH", "value": 99.35, "unit": "A %"}, {"measurement": "HPLC Purity (A %)", "setting": "[3]; 7 days, 60° C.", "value": 99.21, "unit": "A %"}, {"measurement": "Chemical and physical stability compared to the other forms tested", "setting": "[3]; Example 6 stability study", "value": "better chemical and physical stability; also recorded: improved chemical and physical stability"}, {"measurement": "HPLC Purity (A %)", "setting": "[3]; T0", "value": 99.82, "unit": "A %"}, {"measurement": "Assay ‘anhydrous and solvent-free basis’ (% w/w)", "setting": "[4]; 2-8° C., 1 month", "value": 96.9, "unit": "% w/w"}, {"measurement": "Crystallinity", "setting": "[4]; 2-8° C., 1 month", "value": "Crystalline"}, {"measurement": "Total impurity (% a/a)", "setting": "[4]; 2-8° C., 1 month", "value": 1.7, "unit": "% a/a"}, {"measurement": "Water content (% w/w)", "setting": "[4]; 2-8° C., 1 month", "value": 1.2, "unit": "% w/w"}, {"measurement": "Assay ‘anhydrous and solvent-free basis’ (% w/w)", "setting": "[4]; 2-8° C., 3 months", "value": 96.1, "unit": "% w/w"}, {"measurement": "Crystallinity", "setting": "[4]; 2-8° C., 3 months", "value": "Crystalline"}, {"measurement": "Total impurity (% a/a)", "setting": "[4]; 2-8° C., 3 months", "value": 1.7, "unit": "% a/a"}, {"measurement": "Water content (% w/w)", "setting": "[4]; 2-8° C., 3 months", "value": 1.8, "unit": "% w/w"}, {"measurement": "Assay ‘anhydrous and solvent-free basis’ (% w/w)", "setting": "[4]; 2-8° C., 6 months", "value": 97.7, "unit": "% w/w"}, {"measurement": "Crystallinity", "setting": "[4]; 2-8° C., 6 months", "value": "Crystalline"}, {"measurement": "Total impurity (% a/a)", "setting": "[4]; 2-8° C., 6 months", "value": 1.4, "unit": "% a/a"}, {"measurement": "Water content (% w/w)", "setting": "[4]; 2-8° C., 6 months", "value": 2.1, "unit": "% w/w"}, {"measurement": "Assay ‘anhydrous and solvent-free basis’ (% w/w)", "setting": "[4]; 2-8° C., Initial", "value": 95.8, "unit": "% w/w"}, {"measurement": "Crystallinity", "setting": "[4]; 2-8° C., Initial", "value": "Crystalline"}, {"measurement": "Total impurity (% a/a)", "setting": "[4]; 2-8° C., Initial", "value": 1.5, "unit": "% a/a"}, {"measurement": "Water content (% w/w)", "setting": "[4]; 2-8° C., Initial", "value": 0.87, "unit": "% w/w"}, {"measurement": "Assay ‘anhydrous and solvent-free basis’ (% w/w)", "setting": "[4]; 25° C. and 60% RH, 1 month", "value": 96.8, "unit": "% w/w"}, {"measurement": "Total impurity (% a/a)", "setting": "[4]; 25° C. and 60% RH, 1 month", "value": 1.8, "unit": "% a/a"}, {"measurement": "Water content (% w/w)", "setting": "[4]; 25° C. and 60% RH, 1 month", "value": 1.2, "unit": "% w/w"}, {"measurement": "Assay ‘anhydrous and solvent-free basis’ (% w/w)", "setting": "[4]; 25° C. and 60% RH, 3 months", "value": 95.2, "unit": "% w/w"}, {"measurement": "Total impurity (% a/a)", "setting": "[4]; 25° C. and 60% RH, 3 months", "value": 1.8, "unit": "% a/a"}, {"measurement": "Water content (% w/w)", "setting": "[4]; 25° C. and 60% RH, 3 months", "value": 1.6, "unit": "% w/w"}, {"measurement": "Assay ‘anhydrous and solvent-free basis’ (% w/w)", "setting": "[4]; 25° C. and 60% RH, 6 months", "value": 96.2, "unit": "% w/w"}, {"measurement": "Total impurity (% a/a)", "setting": "[4]; 25° C. and 60% RH, 6 months", "value": 1.6, "unit": "% a/a"}, {"measurement": "Water content (% w/w)", "setting": "[4]; 25° C. and 60% RH, 6 months", "value": 2.1, "unit": "% w/w"}, {"measurement": "Assay ‘anhydrous and solvent-free basis’ (% w/w)", "setting": "[4]; 25° C. and 60% RH, Initial", "value": 95.8, "unit": "% w/w"}, {"measurement": "Total impurity (% a/a)", "setting": "[4]; 25° C. and 60% RH, Initial", "value": 1.5, "unit": "% a/a"}, {"measurement": "Water content (% w/w)", "setting": "[4]; 25° C. and 60% RH, Initial", "value": 0.87, "unit": "% w/w"}, {"measurement": "Changes on storage", "setting": "[4]; accelerated (25° C. and 60% RH)", "value": "no significant changes"}, {"measurement": "Changes on storage", "setting": "[4]; long term (2-8° C.)", "value": "no significant changes"}, {"measurement": "Stability on storage (XRPD)", "setting": "[5]", "value": "stable"}, {"measurement": "Form change as a function of RH (XRPD)", "setting": "[6]", "value": "No form change was observed"}, {"measurement": "Crystal form after prolonged slurry", "setting": "[7]; slurry at 50° C., ACN/DMSO (11:1), after 20 days", "value": "Form IV + extra XRPD"}]}, {"smiles": "Cc1cccnc1-c1ccc(-c2n[nH]c3ncc(-c4ccc5c(c4)CC[C@@H](N4C6COCC4C6)CC5)cc23)nc1", "note": "[Form X]", "values": [{"measurement": "Crystal form after drying", "setting": "[7]; drying at 40° C. under vacuum (overnight)", "value": "amorphous after"}]}]}
